Experiments:
[1] = biological target: T1, FGFR-1 (Homo sapiens, UniProt P11362); experiment: Kinase inhibition assay (DELFIA), FGFr; assay type: biochemical; conditions: 40 μM ATP, kinase domain 20 nM
T1 construct: The kinase domains from FGFR-1, VEGFR-2, Lck, and PDGF were purified from baculoviral vectors expression systems; made in house
Description: (§1) The inhibition activity of the compounds in Examples 8, 9, 10, 11, and 12 and Reference Compounds A and B were evaluated using the Dissociated Enhanced Lanthanide Fluoroimmuno Assay (DELFIA) (Frank Loganzo and Carolyn Hardy. A sensitive, time-resolved fluorometric assay for the detection of inhibitors of phosphotyrosine kinases. American Biotechnology Laboratory, December 1998). DELFIA plates (EG&G Wallac, Gaithersburg, Md.) were coated overnight with Poly Glu Tyr (4:1) (Sigma, St. Louis, Mo.) at room temperature, washed (DELFIA wash reagent, EG&G Wallac), and spotted with 1 μL inhibitor dilution or DMSO carrier control per well. In some cases, kinase was autophosphorylated prior to analysis by incubating 45 minutes at 4° C. in the presence of 4 mM ATP and 25 mM MgCl2. A typical 100 μL kinase assay reaction contained 20 mM Tris (pH 7.5), 20 mM MgCl2, 50 mM NaCl, 5 mM DTT, and protease inhibitors (Mini EDTA-free protease inhibitor cocktail tablets, Boehringer Mannheim, Indianapolis, Ind.), 40 μM ATP, and an appropriate concentration of inhibitor. The reaction was allowed to continue for 30 minutes at room temperature. Plates were washed, blocked 30 minutes at room temperature (0.5% bovine serum albumin in DELFIA Assay Buffer, EG&G Wallac), and washed. One hundred microliter europium-conjugated antiphosphotyrosine antibody in DELFIA assay buffer was added to each well. Plates were incubated for 1 hour and decanted. One hundred microliter DELFIA enhancement solution (EG&G Wallac) was added and time-resolved fluorescence of the reactions determined using a VICTOR2 1420 multilable counter (EG&G Wallac). Compounds were tested from 10 through 0.0001 μM. c-Src was (Upstate Biotechnology, Lake Placid, N.Y.) was used at 3 units per reaction. The kinase domains from FGFR-1, VEGFR-2, Lck, and PDGF were purified from baculoviral vectors expression systems and were used in the assays at 20 nM.

[2] = biological target: T2, PDGFR (Mus musculus, UniProt P05622); experiment: Kinase inhibition assay (DELFIA), PDGF; assay type: biochemical; conditions: 40 μM ATP, kinase domain 20 nM
T2 construct: The kinase domains from FGFR-1, VEGFR-2, Lck, and PDGF were purified from baculoviral vectors expression systems and were used in the assays at 20 nM
T2 sequence (P05622 553-1098): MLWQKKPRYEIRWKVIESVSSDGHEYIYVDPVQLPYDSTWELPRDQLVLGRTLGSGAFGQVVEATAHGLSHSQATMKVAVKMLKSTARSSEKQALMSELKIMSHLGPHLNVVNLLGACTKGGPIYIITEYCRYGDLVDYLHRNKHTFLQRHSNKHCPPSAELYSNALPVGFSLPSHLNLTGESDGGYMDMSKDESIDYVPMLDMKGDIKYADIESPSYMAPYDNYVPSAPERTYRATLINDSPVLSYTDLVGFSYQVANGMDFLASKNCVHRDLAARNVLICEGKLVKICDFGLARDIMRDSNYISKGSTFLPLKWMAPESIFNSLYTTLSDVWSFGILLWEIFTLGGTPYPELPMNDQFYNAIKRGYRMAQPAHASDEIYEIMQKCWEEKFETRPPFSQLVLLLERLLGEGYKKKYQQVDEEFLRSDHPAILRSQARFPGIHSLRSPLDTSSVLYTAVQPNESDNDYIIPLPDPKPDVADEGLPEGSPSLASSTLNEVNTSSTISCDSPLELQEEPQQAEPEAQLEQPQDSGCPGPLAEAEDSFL
Description: as §1, with “Plates were washed, blocked 30 minutes at room temperature (0.5% bovine serum albumin in DELFIA Assay Buffer, EG&G Wallac), and washed. One hundred microliter europium-conjugated antiphosphotyrosine antibody in DELFIA assay buffer was added to each well. Plates were incubated for 1 hour and decanted.” left out, “Compounds were tested from 10 through 0.0001 μM. c-Src was (Upstate Biotechnology, Lake Placid, N.Y.) was used at 3 units per reaction. The kinase domains from FGFR-1, VEGFR-2, Lck, and PDGF were purified from baculoviral vectors expression systems and were used in the assays at 20 nM.” left out

[3] = tested on: A90 human ovarian cells; experiment: A90 tumor cell proliferation (Sulphorhodamine B); assay type: cell-based; conditions: 4 days with compound
Description: Human umbilical vein endothelial cells (HUVECs) (Clonetics, Palo Alto, Calif.) were seeded at 2000 cells per well in growth medium containing 2% serum (EGM, Clonetics) and allowed to attach overnight (37° C., 5% CO2, 100% humidity). C6 rat glioma cells (ATCC) were seeded at 600 cells per well and incubated in F10 medium (GIBCO, Gaithersburg, Md.) supplemented with 15% horse serum, 2.5% fetal bovine serum, and 1 mM glutamine. A90 human ovarian cells (Dr. Kent Crickard, SUNY/AB Medical School) were seeded at 600 cells per well in RPMI1640 (GIBCO) plus 10% fetal bovine serum. Plates were incubated overnight (37° C., 5% CO2, 100% humidity) to allow the cells to attach. Test compound dilutions were added to the appropriate wells, and the incubation was continued for 4 additional days. Monolayers were fixed in 10% trichloroacetic acid (30 minutes at 4° C.), washed with distilled water, and stained with Sulphorhodamine B (0.075% in 1% acetic acid) (Sigma). Plates were washed in 1% acetic acid, and the bound dye was solubilized in 100 μL unbuffered Tris base. Absorbance was measured at 540 nm using a reference filter wavelength of 630 nm. Inhibitor potency (IC50) versus cellular proliferation was determined, and endothelial cell selectivity was assessed by comparing the inhibition of HUVEC proliferation to A90 and C6 tumor cell proliferation (Table 3).

[4] = tested on: VEGFR-2 and FGFR-1 compared to PDGFR, Lck, and c-Src; experiment: Kinase selectivity comparison across the kinase inhibition assays; assay type: biochemical; conditions: compared with reference Compounds A and B
From the text: The invention compounds have been evaluated in the in vitro biological assays described in U.S. Pat. No. 5,733,914. […] Reference Compound A has a 2,6-dichloro phenyl group at the 6-position. Reference Compound B has a 3,5-dimethoxyphenyl group at the 6-position and a substituted phenylamino at the 2-position. The invention compound of Example 8 has the required 3,5-dimethoxyphenyl at the 6-position and the required (4-pyridyl)amino at the 2-position. The structures are shown in Table 1, along with their respective inhibitory activities against various tyrosine kinases, when evaluated in the models described in U.S. Pat. No. 5,733,914.
The preferred kinase selectivity profile of the compound in Example 8 is shared by the other representative compounds of the invention shown in Table 2. The inhibition activity of the compounds in Examples 8, 9, 10, 11, and 12 and Reference Compounds A and B were evaluated using the Dissociated Enhanced Lanthanide Fluoroimmuno Assay (DELFIA) (Frank Loganzo and Carolyn Hardy. A sensitive, time-resolved fluorometric assay for the detection of inhibitors of phosphotyrosine kinases. American Biotechnology Laboratory, December 1998). […] One hundred microliter DELFIA enhancement solution (EG&G Wallac) was added and time-resolved fluorescence of the reactions determined using a VICTOR2 1420 multilable counter (EG&G Wallac). […]

T1 sequence (P11362 478-767 limits assumed, species assumed): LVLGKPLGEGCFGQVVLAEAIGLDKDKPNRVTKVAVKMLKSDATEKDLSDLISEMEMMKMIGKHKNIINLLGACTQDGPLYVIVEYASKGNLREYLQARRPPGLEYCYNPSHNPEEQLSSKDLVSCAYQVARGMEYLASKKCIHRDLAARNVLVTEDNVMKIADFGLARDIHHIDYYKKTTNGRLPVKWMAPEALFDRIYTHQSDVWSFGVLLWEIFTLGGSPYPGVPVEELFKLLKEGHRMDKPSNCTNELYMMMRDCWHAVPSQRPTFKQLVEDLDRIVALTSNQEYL

Question: What does the source list for “6-(3,5-Dimethoxy-phenyl)-8-ethyl-2-(pyridin-4-ylamino)-8H-pyrido[2,3-d]pyrimidin-7-one [Example 8]”?
Answer: IC50 [1]: 0.009 µM; IC50 [2]: 2.54 µM; IC50 [3]: 2.92 µM; selectivity for VEGFR-2 and FGFR-1 compared to PDGFR, Lck, and c-Src [4]: more selective

Source: patent US7022711B2, “2-(4-Pyridyl)amino-6-dialkoxyphenyl-pyrido[2,3-d]pyrimidin-7-ones” (Warner-Lambert Company, priority 2000, dated 2006)
